pEC50: −log10 of the molar value. Structures can show the parent of a compound that is named as a salt.
The compounds below were run on progranulin (PGRN) secretion, BV-2 cells (assay: PGRN assay: progranulin induction cellular assay (ELISA of secreted mouse PGRN)). Conditions: not given.
Format: cell-based
Method in brief: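 Progranulin induction measured in BV-2 cells plated at about 80% confluence the day before, given 1 h to attach, then incubated 16 h. Secreted mouse PGRN quantified by ELISA.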

| Compound | pEC50 |
| --- | --- |
| O=C(O[C@@H]1CN2CCC1CC2)N1CCn2nnnc2C1c1ccc(F)cc1 (stereo partly shown) [Compound 2124] | 5.27 |
| O=C(O[C@@H]1CN2CCC1CC2)N1CCn2ccnc2C1c1ccc(F)cc1 (stereo partly drawn) [Compound 2123, (S)-quinuclidin-3-yl 8-(4-fluorophenyl)-5,6-dihydroimidazo[1,2-a]pyrazine-7(8H)-carboxylate] | < 5.00 |

Same assay, conditions: Mus musculus, BV-2

| Compound | pEC50 |
| --- | --- |
| CNC(=O)c1ccc2c(c1)[C@H](c1ccc(F)cc1)N(C(=O)O[C@@H]1CN3CCC1CC3)CC2 [Compound 2065] | < 5.00 |
| CS(=O)(=O)c1ccc2c(c1)CCN(C(=O)O[C@@H]1CN3CCC1CC3)[C@H]2c1ccc(F)cc1 [Compound 2025] | < 5.00 |
| C#CCOc1ccc2c(c1)CCN(C(=O)O[C@@H]1CN3CCC1CC3)[C@H]2c1ccc(F)cc1 [Compound 2082] | 5.13 |

Same assay, conditions: Mus musculus, BV-2, PGRN assay, Table C; secreted mouse PGRN in cell culture medium, ELISA

| Compound | pEC50 |
| --- | --- |
| CN(CC12CCN(CC1)CC2)C(=O)N1CCc2ccccc2[C@@H]1c1ccc(F)cc1 [Compound 2013] | < 5.00 |
| O=C(O[C@@H]1[C@@H]2CC[C@H]1CNC2)N1CCc2ccccc2[C@@H]1c1ccc(F)cc1 (single isomer, unassigned) [Compound 2103] | 5.37 |
| C#CCOc1ccc2c(c1)CCN(C(=O)N[C@@H]1CN3CCC1CC3)[C@@H]2c1ccc(F)cc1 [Compound 2064] | < 5.00 |
| CN1C[C@H]2CC[C@@H](OC(=O)N3CCc4ccccc4[C@@H]3c3ccc(F)cc3)[C@H]2C1 (relative stereo) [Compound 2061, (1 S)-(rel-(3′aR,6′aS)-2′-methyloctahydrocyclopenta[c]pyrrol-4-yl)-1-(4-fluorophenyl)-3,4-dihydroisoquinoline-2(1H)-carboxylate] | 6.49 |
| CNC(=O)c1ccc2c(c1)CCN(C(=O)N[C@@H]1CN3CCC1CC3)[C@H]2c1ccc(F)cc1 [Compound 2090] | < 5.00 |
| CNC(=O)c1ccc2c(c1)CCN(C(=O)NCC13CCN(CC1)CC3)[C@@H]2c1ccc(F)cc1 [Compound 2071] | 5.43 |
| C#CCOc1ccc2c(c1)CCN(C(=O)NCC13CCN(CC1)CC3)[C@H]2c1ccc(F)cc1 [Compound 2084] | < 5.00 |
| O=C(N[C@@H]1CCN2CCC[C@H]12)N1CCc2ccccc2[C@@H]1c1ccc(F)cc1 [Compound 2048] | 5.72 |
| CN1CC2CCC(C1)C2OC(=O)N1CCc2ccccc2[C@@H]1c1ccc(F)cc1 (single isomer, unassigned) [Compound 2093] | 6.42 |
| CN1CCO[C@H](CC(=O)N2CCc3ccccc3[C@@H]2c2ccc(F)cc2)C1 [Compound 2003] | 5.95 |
| CN1[C@H]2COC[C@H]1CC(OC(=O)N1CCc3ccccc3[C@@H]1c1ccc(F)cc1)C2 (single isomer, unassigned) [Compound 2099] | 5.73 |
| O=C(OCC12CCN(CC1)CC2)N1CCc2ccccc2[C@@H]1c1cc(F)cc(F)c1 (single isomer, unassigned) [Compound 2140, quinuclidin-4-ylmethyl-1-(3,5-difluorophenyl)-3,4-dihydroisoquinoline-2(1H)-carboxylate] | 5.00 |
| CN1CC2COC[C@@H](C1)[C@H]2OC(=O)N1CCc2ccccc2[C@@H]1c1ccc(F)cc1 (single isomer, unassigned) [Compound 2106] | < 5.00 |
| CO[C@@H](CC12CCN(CC1)CC2)C(=O)N1CCc2ccccc2[C@@H]1c1ccc(F)cc1 [Compound 2027] | < 5.00 |
| C#CCOc1ccc2c(c1)CCN(C(=O)OCC13CCN(CC1)CC3)[C@@H]2c1ccc(F)cc1 [Compound 2079] | 5.32 |
| COC(=O)c1ccc2c(c1)CCN(C(=O)NCC13CCN(CC1)CC3)[C@H]2c1ccc(F)cc1 [Compound 2068] | 5.47 |
| CS(=O)(=O)c1ccc2c(c1)CCN(C(=O)N[C@@H]1CN3CCC1CC3)[C@H]2c1ccc(F)cc1 [Compound 2040, 1-(4-fluorophenyl)-6-(methylsulfonyl)-N—((S)-quinuclidin-3-yl)-3,4-dihydroisoquinoline-2(1H)-carboxamide] | < 5.00 |
| O=C(OCC12CCN(CC1)CC2)N1CCc2ccccc2[C@H]1c1ccc(F)c(F)c1 [Compound 2111] | 6.20 |
| CN1CCC(COC(=O)N2CCc3ccccc3[C@@H]2c2cc(F)c(F)c(F)c2)CC1 [Compound 2142] | 5.07 |
| CS(=O)(=O)c1ccc2c(c1)[C@@H](c1ccc(F)cc1)N(C(=O)N[C@@H]1CN3CCC1CC3)CC2 [Compound 2057] | < 5.00 |
| CNC(=O)c1ccc2c(c1)CCN(C(=O)OCC13CCN(CC1)CC3)[C@H]2c1ccc(F)cc1 [Compound 2080] | < 5.00 |

Same assay, conditions: Mus musculus, BV-2, PGRN assay, Table D; secreted mouse PGRN in cell culture medium, ELISA

| Compound | pEC50 |
| --- | --- |
| CN1C[C@@H](N(C)C(=O)N2CCc3ccccc3[C@@H]2c2ccc(F)cc2)C(F)(F)C1 [Compound 2298, (S)—N—((R)-4,4-difluoro-1-methylpyrrolidin-3-yl)-1-(4-fluorophenyl)-N-methyl-3,4-dihydroisoquinoline-2(1H)-carboxamide] | < 5.00 |
| CN1C[C@H](NC(=O)N2CCc3ccccc3[C@@H]2c2ccc(F)cc2)C(F)(F)C1 [Compound 2294, (S)—N—((S)-4,4-difluoro-1-methylpyrrolidin-3-yl)-1-(4-fluorophenyl)-3,4-dihydroisoquinoline-2(1H)-carboxamide] | < 5.00 |
| CN(C)C[C@@H]1CCN(C(=O)N2CCc3ccccc3[C@@H]2c2ccc(F)cc2)C1 [Compound 2313, ((S)-3-((dimethylamino)methyl)pyrrolidin-1-yl)((S)-1-(4-fluorophenyl)-3,4-dihydroisoquinolin-2(1H)-yl)methanone] | 5.53 |
| CN1C[C@H](N(C)C(=O)N2CCc3ccccc3[C@@H]2c2ccc(F)cc2)C(F)(F)C1 [Compound 2299, (S)—N—((S)-4,4-difluoro-1-methylpyrrolidin-3-yl)-1-(4-fluorophenyl)-N-methyl-3,4-dihydroisoquinoline-2(1H)-carboxamide] | < 5.00 |
| CN(C)C[C@H]1CCN(C(=O)N2CCc3ccccc3[C@@H]2c2ccc(F)cc2)C1 [Compound 2314] | 5.78 |

Second part, the compound after the results:

| pEC50 | Compound |
| --- | --- |
| 7.00 | CN1CC[C@@H](OC(=O)N2CCc3ccccc3[C@@H]2c2ccc(F)cc2)C1 [Compound 2250, (R)-1-methylpyrrolidin-3-yl (S)-1-(4-fluorophenyl)-3,4-dihydroisoquinoline-2(1H)-carboxylate hydrochloride] |
| 6.37 | CN1CC[C@H](NC(=O)N2CCc3ccccc3[C@@H]2c2ccc(F)cc2)C1 [Compound 2237, (S)-1-(4-fluorophenyl)-N—((S)-1-methylpyrrolidin-3-yl)-3,4-dihydroisoquinoline-2(1H)-carboxamide] |
| 5.97 | O=C(OC[C@@H]1CCNC1)N1CCc2ccccc2[C@@H]1c1ccc(F)cc1 [Compound 2230] |
| 5.98 | O=C(NCC1(F)CNC1)N1CCc2ccccc2[C@@H]1c1ccc(F)cc1 [Compound 2231] |
| 5.80 | O=C(N[C@@H]1CCNC1)N1CCc2ccccc2[C@@H]1c1ccc(F)cc1 [Compound 2223] |
| 6.90 | O=C(N[C@H]1CNC[C@H]1F)N1CCc2ccccc2[C@@H]1c1ccc(F)cc1 [Compound 2352] |
| 5.26 | O=C(NC[C@H]1CCCNC1)N1CCc2ccccc2[C@@H]1c1ccc(F)cc1 (single isomer, unassigned) [Compound 2220] |
| 6.14 | O=C(NC[C@@H]1CNCCO1)N1CCc2ccccc2[C@@H]1c1ccc(F)cc1 [Compound 2209] |
| 6.07 | O=C(NC[C@H]1CNCCO1)N1CCc2ccccc2[C@@H]1c1ccc(F)cc1 (single isomer, unassigned) [Compound 2210] |
| 5.62 | O=C(OC[C@H]1CCN1)N1CCc2ccccc2[C@@H]1c1ccc(F)cc1 [Compound 2240] |
| 6.14 | O=C(O[C@@H]1CNCCOC1)N1CCc2ccccc2[C@@H]1c1ccc(F)cc1 [Compound 2260] |

Same assay, conditions: PGRN assay, Table C; secreted mouse PGRN in cell culture medium, ELISA

| Compound | pEC50 |
| --- | --- |
| O=C(OC1CNC1)N1CCc2ccccc2[C@@H]1c1ccc(F)cc1 [Compound 2177] | < 5.50 |
